{"source": "patent US20250312417A1", "about": "“Methods for Mitigating Lung Injury in Conjunction with Exposure to Radiation and/or Radiation or Radiomimetic Treatments” (Janssen Pharmaceutica NV, priority 2022, published 2025)", "key": {"[1]": {"tested_on": "lungs of mice after whole thoracic radiation (WTI)", "assay": "Proinflammatory chemokine mRNA expression in lungs after whole thoracic radiation (WTI) 16 Gy", "format": "in vivo, C57BL/6 male mice", "details": "2 weeks post-WTI 16 Gy; 0.3 mg/kg subcutaneously 1 day prior to WTI; p<0.05", "procedure": "Lung data is presented as fold change of chemokine expression normalized to Hprt1 expression (n=5 for Naïve, n=5 for Vehicle (phosphate buffered saline) and TPOm pretreatment). Expression in the naive group is designated as 1 for comparison. Data are shown as means±SE. *P<0.05 vs. vehicle treated mice.\n(§1) Methods: C57BL/6 male mice (9-12 weeks old) were administered with the TPOm RWJ-800088 (0.3 mg/kg) or PBS (vehicle) subcutaneously 1 day prior to whole thoracic radiation (WTI) at 16 Gy delivered by x-ray. Mice were sacrificed at 2 weeks and 7 months (n=5/time point/group) post-WTI to collect the lung tissues for various analysis. Groups of mice (n=10/group) exposed to 18 Gy WTI were also subjected to an 8-month survival study."}, "[2]": {"tested_on": "lungs of mice after whole thoracic radiation (WTI)", "assay": "H&E staining of lung sections for cellularity and immune infiltration post-WTI", "format": "in vivo, C57BL/6 male mice", "details": "2 weeks post-WTI 16 Gy; 0.3 mg/kg subcutaneously 1 day prior to WTI", "procedure": "(§2) FIGS. 2A-2B show the effect of TPOm-pretreatment (1 day before irradiation at 0.3 mg/kg body weight by subcutaneous injection) on immune cell infiltration and permeability in the lungs of mice at 14 days post-WTI. […] 200× total magnification.\nas §1"}, "[3]": {"tested_on": "lungs of mice after whole thoracic radiation (WTI)", "assay": "Protein in bronchoalveolar lavage by bicinchoninic acid assay (BCA) post-WTI", "format": "in vivo, C57BL/6 male mice", "details": "2 weeks post-WTI 16 Gy; 0.3 mg/kg subcutaneously 1 day prior to WTI; p<0.05", "procedure": "as §2, §1"}, "[4]": {"tested_on": "lungs of mice after whole thoracic radiation (WTI)", "assay": "Collagen deposition in lungs by Trichrome Blue staining post-WTI", "format": "in vivo, C57BL/6 male mice", "details": "7 months post-WTI 16 Gy; 0.3 mg/kg subcutaneously 1 day prior to WTI; p<0.05", "procedure": "FIGS. 3A-3B show the effect of TPOm-pretreatment (1 day before irradiation at 0.3 mg/kg body weight by subcutaneous injection) on collagen deposition in lungs of mice at 7 months post-WTI. […] 200× total magnification.\nas §1"}, "[5]": {"tested_on": "lungs of mice after whole thoracic radiation (WTI)", "assay": "Pulmonary density by microCT post-WTI", "format": "in vivo, C57BL/6 male mice", "details": "7 months post-WTI 16 Gy; 0.3 mg/kg subcutaneously 1 day prior to WTI; p<0.05", "procedure": "FIGS. 5A-5C show the effect of TPOm-pretreatment (1 day before irradiation at 0.3 mg/kg body weight by subcutaneous injection) on pulmonary density of mice at 7 months post-WTI. Pulmonary density imaged by microCT and measured by microCT analysis software. […] (n=3 for Naïve, n=5 for vehicle and n=4 for TPOm pretreatment). *P <0.05 vs. vehicle treated mice.\nas §1"}, "[6]": {"tested_on": "lungs of mice after whole thoracic radiation (WTI)", "assay": "Senescence marker mRNA expression in lungs (qPCR) post-WTI", "format": "in vivo, C57BL/6 male mice", "details": "7 months post-WTI 16 Gy; 0.3 mg/kg subcutaneously 1 day prior to WTI; p<0.05", "procedure": "FIGS. 4A-4C show the effect of TPOm-pretreatment (1 day before irradiation at 0.3 mg/kg body weight by subcutaneous injection) on senescence gene mRNA and protein expression in lungs of mice at 7 months post-WTI. mRNA and protein levels assessed by qPCR and western blot, respectively. […] Data are shown as means±SE. *P <0.05 vs. vehicle treated mice. […] Expression in the naive group is designated as 1 for comparison.\nas §1"}, "[7]": {"tested_on": "mice exposed to 18 Gy WTI", "assay": "8-month survival study after 18 Gy WTI", "format": "in vivo, C57BL/6 male mice", "procedure": "Mice were given a vehicle or TPOm injection (1 mg/kg), 1 day before irradiation (1×) or 1 day before irradiation and 7 days after radiation (2×) (n=10 for irradiated groups, n=5 for naïve). *P<0.05 vs. vehicle treated mice.\nas §1"}, "[8]": {"tested_on": "lungs of mice after whole thoracic radiation (WTI)", "assay": "KC protein in whole lung lysate by ELISA post-WTI", "format": "in vivo", "details": "post-WTI 16 Gy; 0.3 mg/kg subcutaneously 1 day before irradiation; FIG. 7A", "procedure": "(§3) FIGS. 7A-C show TPOm-pretreatment (1 day before irradiation at 0.3 mg/kg body weight by subcutaneous injection) on neutrophil infiltration of mice measured at 7 months post-WTI. […] 400× total magnification. […] Data are shown as means±SE. *P<0.05, ***P<0.0001.\nas §1\nMethods: Mice were treated as described in Example 1. Whole lung lysate was prepared from left lung tissue at the time of harvest. KC ELISA kit (R&D Systems, #DY453) was used according to manufacturer's instructions. For each sample, 2 replicates were measured for KC protein."}, "[9]": {"tested_on": "lungs of mice after whole thoracic radiation (WTI)", "assay": "Myeloperoxidase (MPO) staining of lung sections for neutrophil infiltration post-WTI", "format": "in vivo", "details": "post-WTI 16 Gy; 0.3 mg/kg subcutaneously 1 day before irradiation; FIG. 7C", "procedure": "as §3, §1\nAt the time of harvest, the right lung was fixed with 10% formalin, then embedded and sectioned at […]. Anti-myeloperoxidase (MPO) antibody was obtained from Abcam (Cambridge, MA, USA). Immunoreactivity was visualized by ImmPACT histochemistry (Vector Labs, Burlingame, CA, USA) with hematoxylin counter staining. For quantitation of MPO+ cells in lung tissue, images were analyzed with ImageJ software (National Institutes of Health); stained cells were counted using the “analyze particles” module to assess positive staining. Data were quantified from 3 fields of 1 section per animal, and 5 animals per group."}}, "data": [{"substance": "methoxypolyethyleneglycol20000-propionyl-L-Isoleucyl-L-Glutamyl-Glycyl-L-Prolyl-L-Threonyl-L-Leucyl-L-Arginyl-L-Glutaminyl-L-2-Naphthylalanyl-L-Leucyl-L-Alanyl-L-Alanyl-L-Arginyl-Sarcosyl-Ne-(methoxypolyethyleneglycol20000-propionyl-L-Isoleucyl-L-Glutamyl-Glycyl-L-Prolyl-L-Threonyl-L-Leucyl-L-Arginyl-L-Glutaminyl-L-2-Naphthylalanyl-L-Leucyl-L-Alanyl-L-Alanyl-L-Arginyl-Sarcosyl-)-Lysinamide [TPOm]", "values": [{"measurement": "mRNA expression of proinflammatory chemokine KC in lungs, lower than vehicle", "setting": "[1]", "result": 37, "unit": "%"}, {"measurement": "mRNA expression of proinflammatory chemokine MCP1 in lungs, lower than vehicle", "setting": "[1]", "result": 39, "unit": "%"}, {"measurement": "cellularity by H&E staining", "setting": "[2]", "result": "higher cellularity in vehicle compared to TPOm treated mice"}, {"measurement": "protein leaked to bronchoalveolar lavage fluid, less than vehicle", "setting": "[3]", "result": 28, "unit": "%"}, {"measurement": "collagen deposition, lower than vehicle (Trichrome Blue staining)", "setting": "[4]", "result": 31, "unit": "%"}, {"measurement": "density in lungs by microCT, less than vehicle", "setting": "[5]", "result": 21, "unit": "%"}, {"measurement": "mRNA levels of senescence marker p21, lower than vehicle", "setting": "[6]", "result": 52, "unit": "%"}, {"measurement": "survival", "setting": "[7]; vehicle 0%, p<0.01", "result": 40, "unit": "%"}, {"measurement": "mortality", "setting": "[7]; vs vehicle", "result": "significantly delayed in mortality"}, {"measurement": "protein expression of KC in the lung (ELISA)", "setting": "[8]", "result": "significantly reduced in the TPOm (RWJ-800088) group to a level similar to naïve"}, {"measurement": "alveolar neutrophil accumulation (MPO staining)", "setting": "[9]", "result": "alveolar neutrophil accumulation in significantly greater numbers than mice treated with TPOm"}]}]}
